Earlier results in patent US7169818B2, “Lysophosphatidic acid receptor agonists and antagonists” (University of Virginia Patent Foundation, priority 2000, dated 2007).

How the values were obtained:
Details in all cases: previously reported; cited from earlier work
[1] = biological target: T1, human LPA3 (Homo sapiens, UniProt Q9UBY5); parameters: expressed in transfected cells; host or cells: HEK293T (transient)
T1 sequence (Q9UBY5 1-353): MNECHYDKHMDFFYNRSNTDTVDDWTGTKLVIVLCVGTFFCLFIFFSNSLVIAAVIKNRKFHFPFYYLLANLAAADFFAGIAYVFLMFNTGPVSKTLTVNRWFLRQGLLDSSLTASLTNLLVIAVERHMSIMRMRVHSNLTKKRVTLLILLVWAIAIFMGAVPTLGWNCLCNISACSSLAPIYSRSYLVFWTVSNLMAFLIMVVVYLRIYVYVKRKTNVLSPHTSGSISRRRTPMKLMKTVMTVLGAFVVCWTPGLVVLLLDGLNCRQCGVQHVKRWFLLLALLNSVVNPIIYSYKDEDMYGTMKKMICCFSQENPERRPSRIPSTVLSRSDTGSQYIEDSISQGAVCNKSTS

[2] = tested on: human platelets
[3] = biological target: mouse LPA1 (Mus musculus, UniProt P61793); parameters: expressed in transfected cells; host or cells: HEK293T (transient); for part of the results RH7777 membranes
[4] = tested on: Xenopus laevis ooctyes
[5] = biological target: human LPA2 (Homo sapiens, UniProt Q9HBW0); parameters: expressed in transfected cells; host or cells: HEK293T (transient)
Sequence of human LPA2 (Q9HBW0 whole entry): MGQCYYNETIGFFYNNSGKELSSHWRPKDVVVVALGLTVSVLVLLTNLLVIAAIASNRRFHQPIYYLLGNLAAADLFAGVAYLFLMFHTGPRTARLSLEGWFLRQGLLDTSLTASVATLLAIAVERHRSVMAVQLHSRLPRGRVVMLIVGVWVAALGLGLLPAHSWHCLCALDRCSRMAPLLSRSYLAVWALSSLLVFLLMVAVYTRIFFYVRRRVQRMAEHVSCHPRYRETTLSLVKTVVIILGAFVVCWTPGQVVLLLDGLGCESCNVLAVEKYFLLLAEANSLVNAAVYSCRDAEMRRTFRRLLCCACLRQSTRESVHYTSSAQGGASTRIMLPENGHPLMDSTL

Sequence of mouse LPA1 (P61793 whole entry): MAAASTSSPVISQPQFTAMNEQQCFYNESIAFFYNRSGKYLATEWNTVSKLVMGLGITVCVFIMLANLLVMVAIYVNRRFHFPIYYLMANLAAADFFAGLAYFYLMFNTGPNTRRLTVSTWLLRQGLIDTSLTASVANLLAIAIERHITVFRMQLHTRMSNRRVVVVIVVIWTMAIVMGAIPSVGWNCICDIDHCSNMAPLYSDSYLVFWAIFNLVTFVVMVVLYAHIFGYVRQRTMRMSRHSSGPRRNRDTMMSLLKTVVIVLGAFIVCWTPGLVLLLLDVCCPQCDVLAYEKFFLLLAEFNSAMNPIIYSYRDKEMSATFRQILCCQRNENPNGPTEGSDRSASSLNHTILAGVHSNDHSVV

Question: What does the source list for `CCCCCCCC/C=C\CCCCCCCC(=O)NCCOP(=O)(O)O` [NAEPA, N-oleoyl ethanolamide phosphoric acid]?
Answer: activity at recombinant LPA3 relative to LPA (literature) [1]: distinctly less active than LPA; platelet aggregation (literature) [2]: nearly indistinguishable from LPA; GTP[γ35S] binding at LPA1 containing membranes relative to LPA (literature) [3]: nearly indistinguishable from LPA; oocyte depolarization (literature) [4]: distinctly less active than LPA; GTP[γ35S] binding at LPA2 containing membranes relative to LPA (literature) [5]: nearly indistinguishable from LPA
